From patent US20030180355A1, “Combination therapy for hypertension” (priority 2001, published 2003)
Marks after values point to notes of the source that are not given here.

Columns and labels:
[1] = tested on: patients with a sitting diastolic blood pressure (SDBP) of 95-109 mm Hg; experiment: Clinical study, factorial design, randomized double-blind placebo-controlled, 8 weeks; type: in vivo, human; conditions: for Therapeutic response rate, study participants with SDBP < 90 mm Hg / Change in SDBP / Change in SSBP: 8 weeks; for Change in SDBP / Change in SSBP: vs baseline, response surface analysis
Protocol: A multi-center, randomized, double-blind, placebo-controlled, parallel groups, factorial design trial was conducted. After a 14-day (±3 days) screening/washout period during which patients were washed from ongoing antihypertensive therapy, eligible patients with a sitting diastolic blood pressure (SDBP) of 95-109 mm Hg, entered the 28 day (±3 days) single-blind placebo run-in period during which they received placebo once-daily. Patients who were not responsive to this treatment and whose SDBP was 95-109 mm Hg, were randomized into an eight-week double-blind treatment phase. Baseline measurements were taken on Study Day 0 with post-therapy assessments during the double blind period scheduled on Study Days 14, 28, 42, and 56. Laboratory tests were conducted prior to the beginning of the screening period and on study Day 0 as well as at the end of the study.
The number of patients screened was greater than 800; 798 entered the 4-week single-blind placebo period, and 663 eligible patients were randomized into the 8-week double-blind treatment. The number in parenthesis represents the number of patients in each group available for efficacy evaluation.
The patients were randomized into one of the above noted 12 treatment groups. Tablets of lercanidipine (5 and 10 mg) and enalapril (2.5 mg) were encapsulated in the appropriate doses, in order to assure double-blind conditions. All tablets were of commercial origin except for the 5 mg lercanidipine, which were prepared in accordance with Table 3.
Patients were instructed to take one capsule of the study medication once daily 15 minutes before breakfast, between 6 and 10 am. All medications were to be withheld on mornings of clinic visits until after blood pressure evaluations at 22-26 hours following the previous day's dose of study medication.
1. Trough (Minimum) (24±2 hours post-dose) sitting diastolic blood pressure (SDBP)
2. Trough (24±2 hours post-dose) sitting systolic blood pressure (SSBP)
4. Percent of patients with SDBP<90 mm Hg
The primary efficacy variable was the change from baseline to mean trough SDBP after 8 weeks of double-blind treatment. The analysis was performed in an “intent-to-treat” fashion, including all randomized patients who had received at least one dose of double-blind treatment, and had at least one post-baseline SDBP measurement 18-48 hours post-dose. In case of premature withdrawal from the study the last observation carried forward (LOCF) algorithm was applied (“end point analysis”).
The overall treatment comparison was performed using an analysis of covariance (ANCOVA) with treatment and centers as main effects and baseline value as covariate.
An additional ANOVA was performed using the factorial model in order to test for the interaction of lercanidipine dose and enalapril dose at each time-point.
The number of patients who discontinued the study because of an adverse event is reported in parenthesis.

[2] = cited from earlier work
[3] = tested on: uninephrectomized anesthetized rats; experiment: Model of acute angiotensin-mediated renal hypertension in anesthetized rats; type: in vivo, Sprague-Dawley rats
Protocol: Male Sprague-Dawley rats, weighing 250-300 g, were anaesthetized with pentobarbital sodium (35 mg/kg, i.p.) and placed on a thermic blanket. The temperature was maintained at 37° C. with a thermoregulator via a rectal probe. The animals were tracheotomized to facilitate spontaneous breathing. A polyethylene catheter was placed in the left jugular vein to allow for infusion of pentobarbital sodium to maintain anesthesia. The left femoral vein and artery were cannulated with polyethylene catheters to allow drugs administration and to monitor blood pressure, respectively.
The animals then underwent a left nephrectomy by excising the left kidney via a flank incision. The right kidney and renal vein, artery and ureter then were exposed via a right retroperitoneal incision, under a dissecting microscope. Silk threads were placed around both vessels and ureter. The cavity was then covered with Vaseline oil. See Recordati, et al. 2000, J. Hypertension, 18:1277-1287.
ECG (lead II) was recorded by means of subcutaneous electrodes. After 30-60 minutes of basal recordings of arterial blood pressure and heart rate the threads around the renal vessels and ureter were tied close to the renal hilum to induce complete renal ischemia of the right kidney. After 2 hours of ischemia (designed as “120” in Tables 1-4), the threads were removed to allow renal reperfusion and urine output. The reopening of the renal hilum and restoration of renal circulation, induced an increase in blood pressure that peaked 5-10 minutes and lasted about 60 minutes. Drugs (vehicle, enalapril (100 μg/kg), lercanidipine (10 μg/kg), or both lercanidipine (10 μg/kg) and enalapril (100 μg/kg)) were administered intravenously at 5 minutes after reperfusion began (defined as 125 in Tables 4-7).
Statistical analysis was performed during the reperfusion time (time 125-180 minutes). To evaluate the statistical differences among the treatment groups, data were analyzed using a three-way ANOVA (analysis of variance) with repeated measures on factor time and pre-planned multiple comparisons. Statistical analysis was performed by means of general linear model procedure (GLM) with SAS software version 6.12.

[4] = enalapril 5 mg once daily, 55 patients randomized
[5] = enalapril 10 mg once daily, 55 patients randomized
[6] = enalapril 100 μg/kg i.v., time 0 min, basal
[7] = enalapril 100 μg/kg i.v., time 120 min, end of ischemia, before drug
[8] = enalapril 100 μg/kg i.v., time 125 min, reperfusion, before drug
[9] = enalapril 100 μg/kg i.v., time 130 min, drug given at 125 min
[10] = enalapril 100 μg/kg i.v., time 135 min, drug given at 125 min
[11] = enalapril 100 μg/kg i.v., time 150 min, drug given at 125 min
[12] = enalapril 100 μg/kg i.v., time 165 min, drug given at 125 min
[13] = enalapril 100 μg/kg i.v., time 180 min, drug given at 125 min
[14] = lercanidipine 5 mg once daily, 54 patients randomized
[15] = lercanidipine 10 mg once daily, 57 patients randomized
[16] = lercanidipine 20 mg once daily, 54 patients randomized
[17] = lercanidipine 10 μg/kg i.v., time 0 min, basal
[18] = lercanidipine 10 μg/kg i.v., time 120 min, end of ischemia, before drug
[19] = lercanidipine 10 μg/kg i.v., time 125 min, reperfusion, before drug
[20] = lercanidipine 10 μg/kg i.v., time 130 min, drug given at 125 min
[21] = lercanidipine 10 μg/kg i.v., time 135 min, drug given at 125 min
[22] = lercanidipine 10 μg/kg i.v., time 150 min, drug given at 125 min
[23] = lercanidipine 10 μg/kg i.v., time 165 min, drug given at 125 min
[24] = lercanidipine 10 μg/kg i.v., time 180 min, drug given at 125 min

CCOC(=O)[C@H](CCc1ccccc1)N[C@@H](C)C(=O)N1CCC[C@H]1C(=O)O [enalapril, (S)-1-[N-1-(ethoxycarbonyl)-3-phenylpropyl]-L-alanyl-L-proline]
Therapeutic response rate, study participants with SDBP < 90 mm Hg ([1]; enalapril 5 mg once daily): 28%
Change in SDBP ([1]; enalapril 5 mg once daily): −7.7
Change in SSBP ([1]; enalapril 5 mg once daily, confidence interval in parentheses): −9.6 (8.1-11.2)
number of patients who discontinued the study because of an adverse event [1, 4]: 1
number of patients with any adverse events related to study drug [1, 4]: 9
Therapeutic response rate, study participants with SDBP < 90 mm Hg ([1]; enalapril 10 mg once daily): 43%
Change in SDBP ([1]; enalapril 10 mg once daily): −8.8
Change in SSBP ([1]; enalapril 10 mg once daily, confidence interval in parentheses): −11.1 (9.1-13.2)
number of patients who discontinued the study because of an adverse event [1, 5]: 1
number of patients with any adverse events related to study drug [1, 5]: 12
time of peak plasma levels of enalaprilat ([2]; following oral administration of enalapril): 3 to 4 h
DBP (diastolic blood pressure) [3, 6]: 69.6 ± 2.1 mmHg
MBP (mean blood pressure) [3, 6]: 83.4 ± 2.1 mmHg
SBP (systolic blood pressure) [3, 6]: 111.0 ± 2.6 mmHg
DBP (diastolic blood pressure) [3, 7]: 65.1 ± 3.5 mmHg
MBP (mean blood pressure) [3, 7]: 80.0 ± 3.9 mmHg
SBP (systolic blood pressure) [3, 7]: 109.9 ± 5.1 mmHg
DBP (diastolic blood pressure) [3, 8]: 124.9 ± 4.3 mmHg
MBP (mean blood pressure) [3, 8]: 142.2 ± 5.4 mmHg
SBP (systolic blood pressure) [3, 8]: 176.8 ± 8.1 mmHg
DBP (diastolic blood pressure) [3, 9]: 109.9 ± 4.1 a mmHg
MBP (mean blood pressure) [3, 9]: 122.0 ± 4.1 b mmHg
SBP (systolic blood pressure) [3, 9]: 146.1 ± 4.5 c mmHg
DBP (diastolic blood pressure) [3, 10]: 107.1 ± 4.5 a mmHg
MBP (mean blood pressure) [3, 10]: 119.4 ± 4.2 b mmHg
SBP (systolic blood pressure) [3, 10]: 143.9 ± 4.1 b mmHg
DBP (diastolic blood pressure) [3, 11]: 95.9 ± 7.9 b mmHg
MBP (mean blood pressure) [3, 11]: 109.0 ± 7.4 c mmHg
SBP (systolic blood pressure) [3, 11]: 135.4 ± 6.6 b mmHg
DBP (diastolic blood pressure) [3, 12]: 86.5 ± 8.5 b mmHg
MBP (mean blood pressure) [3, 12]: 100.5 ± 8.0 b mmHg
SBP (systolic blood pressure) [3, 12]: 128.5 ± 7.6 a mmHg
DBP (diastolic blood pressure) [3, 13]: 78.9 ± 7.6 a mmHg
MBP (mean blood pressure) [3, 13]: 93.7 ± 7.2 a mmHg
SBP (systolic blood pressure) [3, 13]: 123.4 ± 6.9 mmHg
p value on mean blood pressure vs lercanidipine ([3]; three-way ANOVA, reperfusion time 125-180 min, lercanidipine 10 μg/kg, enalapril 100 μg/kg i.v.): p < 0.001

COC(=O)C1=C(C)NC(C)=C(C(=O)OC(C)(C)CN(C)CCC(c2ccccc2)c2ccccc2)C1c1cccc([N+](=O)[O-])c1 (stereo not drawn) [lercanidipine, methyl 1,1,N-trimethyl-N-(3,3-diphenylpropyl)-2-aminoethyl 1,4-dihydro-2,6-dimethyl-4-(3-nitrophenyl)pyridine-3,5-dicarboxylate]
Therapeutic response rate, study participants with SDBP < 90 mm Hg ([1]; lercanidipine 5 mg once daily): 32%
Change in SSBP ([1]; lercanidipine 5 mg once daily, confidence interval in parentheses): −9.5 (7.8-11.1)
number of patients who discontinued the study because of an adverse event [1, 14]: 3
number of patients with any adverse events related to study drug [1, 14]: 8
Therapeutic response rate, study participants with SDBP < 90 mm Hg ([1]; lercanidipine 10 mg once daily): 40%
Change in SDBP ([1]; lercanidipine 10 mg once daily): −8.2
Change in SSBP ([1]; lercanidipine 10 mg once daily, confidence interval in parentheses): −10.8 (9.1-12.4)
number of patients who discontinued the study because of an adverse event [1, 15]: 1
number of patients with any adverse events related to study drug [1, 15]: 10
Therapeutic response rate, study participants with SDBP < 90 mm Hg ([1]; lercanidipine 20 mg once daily): 59%*
Change in SDBP ([1]; lercanidipine 20 mg once daily): −9.9*
Change in SSBP ([1]; lercanidipine 20 mg once daily, in mm Hg): −13.4* (11.1-15.6)
number of patients who discontinued the study because of an adverse event [1, 16]: 3
number of patients with any adverse events related to study drug [1, 16]: 10
time of peak plasma levels ([2]; following oral dosing): 2 to 3 h
DBP (diastolic blood pressure) [3, 17]: 69.8 ± 2.5 mmHg
MBP (mean blood pressure) [3, 17]: 83.3 ± 2.8 mmHg
SBP (systolic blood pressure) [3, 17]: 110.4 ± 3.6 mmHg
DBP (diastolic blood pressure) [3, 18]: 70.6 ± 5.4 mmHg
MBP (mean blood pressure) [3, 18]: 85.3 ± 5.7 mmHg
SBP (systolic blood pressure) [3, 18]: 114.5 ± 6.5 mmHg
DBP (diastolic blood pressure) [3, 19]: 119.3 ± 5.2 mmHg
MBP (mean blood pressure) [3, 19]: 135.4 ± 6.4 mmHg
SBP (systolic blood pressure) [3, 19]: 167.6 ± 8.9 mmHg
DBP (diastolic blood pressure) [3, 20]: 97.1 ± 3.1 c mmHg
MBP (mean blood pressure) [3, 20]: 111.5 ± 3.2 c mmHg
SBP (systolic blood pressure) [3, 20]: 140.4 ± 3.8 b mmHg
DBP (diastolic blood pressure) [3, 21]: 93.1 ± 4.0 c mmHg
MBP (mean blood pressure) [3, 21]: 108.9 ± 3.7 c mmHg
SBP (systolic blood pressure) [3, 21]: 140.5 ± 3.7 a mmHg
DBP (diastolic blood pressure) [3, 22]: 89.5 ± 4.3 b mmHg
MBP (mean blood pressure) [3, 22]: 106.1 ± 3.9 b mmHg
SBP (systolic blood pressure) [3, 22]: 139.4 ± 3.7 mmHg
DBP (diastolic blood pressure) [3, 23]: 83.5 ± 4.6 a mmHg
MBP (mean blood pressure) [3, 23]: 99.7 ± 4.7 mmHg
SBP (systolic blood pressure) [3, 23]: 132.0 ± 5.3 mmHg
DBP (diastolic blood pressure) [3, 24]: 78.8 ± 4.0 mmHg
MBP (mean blood pressure) [3, 24]: 95.2 ± 4.1 mmHg
SBP (systolic blood pressure) [3, 24]: 128.1 ± 4.7 mmHg
